The source of these data is patent EP1600153A1, “Slow-release pharmaceutical composition allowing to monitor drug release” (Deutsches Krebsforschungszentrum Stiftung des öffentlichen …, priority 2004, dated 2005).

For data set [1] the following is noted: course of plasma level corresponds to that after intravenous application; cited from earlier work.
The nature of data set [2]: Subcutaneous liposome depot preparation in rats: amount of FLAMP at the site of injection by 19F-MRS in vivo. Set-up: species or system Wistar rats. The method, then:
2 ml aqua bidest., 1,7 µl Magnevist™ and 200 mg Phospholipon™ 90H were added to a bottle for injection of Fludara™. The mixture was mixed by hand for 20 min. at room temperature. Then, the mixture was subjected to 6 cycles of vortexing for 2 min. and placing in a water bath at 64°C for 3 min.. Subsequently, the mixture was subjected to 6 cycles of holding in liquid nitrogen for 3 min. and placing in a water bath at 64°C for 6 min. Finally, the mixture was washed for four times with each of 10 ml phosphate buffer. After each washing step, the mixture was centrifuged for 15 min. at 10,000 x g. A colorless preparation having a consistency of a paste was obtained which was transferred to a syringe.
Adult male Wistar rats were bred in twos in isolators and received Altromin™ and water ad libitum. At day 1, in the morning rats were subcutaneously injected once with 1 ml of the pharmaceutical composition described in Example 1 into the right flank ("Luer"-canulla No.12 with screw thread). Injections and NMR-measurements were carried with rats which had been previously subjected to inhalation anesthesia (77% N2, 22% O2 and 1 - 1,2% Isofluran™) .
At day 1, in the morning (after the formulation had been injected) and in the afternoon, respectively, as well as at days 4, 13, 22, 29, 36 and 43 the following NMR-measurements were carried out: The amount of Fludarabin monophosphate (FLAMP) at the site of injection was determined by ^19F-MRS and the volume and the contrast intensity of the drug depot was measured by MRT.
A 1,5-T whole body tomograph(Magnetom Vision Plus, Siemens AG, Erlangen, Germany) was used for the NMR-measurements. For both, the ^19F-MRS and the ^1H-imaging a volume resonator which had been constructed by the DKFZ (resonance frequency: 63,6 MHz (^1H) , 59,9 MHz (^19F) with an inner diameter of 8.4 cm was used which served as transmitting- and receiving coil.
After the rats had been positioned (subcutaneous liposome depot in the middle of the resonator) the volume resonator was manually tuned to the ^1H resonance frequency. After "Shim" (optimization of field homogeneity) by use of the ^1H-tissue water resonance line and subsequent tuning of the coil to the ^19F resonance frequency the ^19F spectra were recorded. The reading sequence comprised a simple non-layer-specific pulsed excitation with subsequent recording of 1024 readings in 51.2 ms corresponding to the fast T2-decay of the FID. The recording period of TA = 33:21 min. resulted from a repetition time TR = 100 ms and a number of NEX = 20000 excitations.
In order to get a reference for the chemical shift and the signal intensity of FLAMP a 0.5 ml reference solution containing 400 mM NaF was applied to the middle of the underside of the volume resonator with the resonance of this solution being at about -40 ppm (with reference to TFA). The follow-up editing of the spectra was carried out by use of the software LUISE which is implemented to the tomograph. […] The relation of the integrals of the resonances of FLAMP to NaF served as a reference value for the individual readings. ^1H-imaging with high resolution was carried with a T1-weighted 3D-gradient-echo-method (3D-FLASH) with lipid saturation (parameters used for measurements: TR = 45 ms; TE = 11 ms; α = 30; FOV = 50 mm; matrix-size = 128 x 128; period of acquisition for the individual readings: 15,36 ms). Multiple transverse layer images of the liposome depots were recorded with layers having an actual thickness of 2, 1- and 0,4 mm, respectively. […]

A short description of data set [3]: Subcutaneous injection of FLAMP solution (control): 19F MRS in vivo at the site of injection. On the set-up: species or system rat. The protocol: Subcutaneous injection of 34 mcmol FLAMP, along with 0.5 mcmol Gd-DTPA, as a 1 ml-solution in an adult male rat, 19F MRS in vivo at the site of injection. Relative FLAMP signal (peak area of FLAMP / peak area of external NaF standard) versus time after injection.
(§1) A solution of the drug and the contrast agent was injected subcutaneously, followed by local MRS and MRI monitoring as in Example 2, in order to test whether either agent might be locally detectable even after release from the depot preparation. The injection volume (1 ml) and the amount of drug (FLAMP, 34 mcmoles) were the same as in Example 2 while the amount of contrast agent was doubled (Gd-DTPA, 0.5 mcmol).

A short description of data set [4]: Subcutaneous injection of Gd-DTPA solution (control): 1H MR imaging at the site of injection. The data set is classed as in vivo, rat. The method, then:
Subcutaneous injection of 0.5 mcmol Gd-DTPA (along with 34 mcmol FLAMP), as a 1 ml-solution in an adult male rat (left flank). Transversal 1H MR images (slice thickness 2 mm) from the region of the injection, taken 85 min after injection. Images numbered in caudal-cranial direction.
as §1

Turning to `Nc1nc(F)nc2c1ncn2[C@@H]1O[C@H](COP(=O)(O)O)[C@@H](O)[C@@H]1O` [FLAMP, Fludarabin-5'-monophosphate], the “absorption after subcutaneous application” value in data set [1] is on record as “immediately absorbed”. In addition, the “drug amounts injected still present at the site of injection” value in data set [2] (day 13 post injection, s.c. 1 ml liposome depot (Phospholipon, Fludara, Magnevist), 19F-NMR-spectroscopy) is 70%; in data set [2] (end of the experiment (day 43, six weeks), s.c. liposome depot), 10%. Also, the “amounts of drug available for release, of the amounts initially injected” value is 12% in data set [2] (end of the period, about six weeks after subcutaneous injection of depot) and 70% in data set [2] (start of the period, about one week after subcutaneous injection of depot). Moreover, in data set [2] (s.c. liposome depot, 19F-MRS), the “time at which amount of FLAMP at the site of injection started to decrease continuously” value was “About one week after injection”. In addition, the “19F MRS signal from the drug at the site of injection” value was “about the same as on day 1 after injecting the depot preparation” in data set [3] (8 min after s.c. injection of solution, 34 mcmoles FLAMP in 1 ml) and “no longer detectable” in data set [3] (after 24 hours, s.c. solution, 34 mcmoles FLAMP). For the same molecule, the “disappearance of MRS signals from the drug itself or indistinguishable metabolites” value in data set [3] (drug injected as a solution) was “disappear within a few hours”. In data set [3] (within 5 hours after s.c. injection of solution, 34 mcmoles FLAMP), the “drop of 19F MRS signal from the drug” value is “more than 90”.
Regarding gadolinium-DPTA [Gd-DTPA], the “contrast enhancement at the site of injection (1H-images, 24 adjacent 2 mm layers)” value in data set [4] (85 min after s.c. injection of solution, 0.5 mcmol Gd-DTPA) is “only a faint diffuse contrast enhancement was detectable in three adjacent layers”. Further, in data set [4] (85 min after s.c. injection of solution, 0.5 mcmol Gd-DTPA, three adjacent layers), the “area of remaining contrast enhancement” value is “about 212 mm”. For the same molecule, the “contrast enhancement left at the site of administration” value in data set [4] (one and a half hours after subcutaneous injection of Gd-DTPA solution) is recorded as “Almost no contrast enhancement was left”.
